Reference: patent US11020399B2, “Intermediates useful in the synthesis of compounds as modulators of protein kinases” (Rhizen Pharmaceuticals SA, priority 2011, dated 2021)

Tests used:
Format in all cases: biochemical
PI3kα = PI3kα (Homo sapiens, UniProt P42336); test: Fluorescent (HTRF) determination of PI3 kinase enzyme activity, PI3Kα; conditions: 1 uM
From the text: (§1) Assay 1: Fluorescent Determination of PI3Kinase Kinase Enzyme Activity
(§2) Phosphoinositide 3 kinases (PI3K) belong to a class of lipid kinases that play a critical role in the regulation of several key cellular processes. The PI3K are capable of phosphorylating the 3-hydroxy position of phosphoinositols thereby generating second messengers involved in downstream signalling events. The homogenous time resolved fluorescence (HTRF) assay allows detection of 3,4,5-triphosphate (PIP3) formed as a result of phosphorylation of phosphotidylinositol 4,5-biphosphate (PIP2) by PI3K isoforms such as α, β, γ or δ. PI3K isoform activity for a, p, y or 8 was determined using a PI3K human HTRF™ Assay Kit (Millipore, Billerica, Mass.) with modifications. All incubations were carried out at room temperature. Briefly, 0.5 μl of 40× inhibitor (in 100% DMSO) or 100% DMSO were added to each well of a 384-well black plate (Greiner Bio-One, Monroe, N.C.) containing 14.5 μl IX reaction buffer /PIP2 (10 mM MgCl2, 5 mM DTT, 1.38 μM PIP2) mix with or without enzyme and incubated for 10 min. After the initial incubation, 5 μl/well of 400 μM ATP was added and incubated for an additional 30 minutes. Reaction was terminated by adding 5 μl/well stop solution (Millipore, Billerica, Mass.). Five microliters of detection mix (Millipore, Billerica, Mass.) were then added to each well and was incubated for 6-18 h in the dark. HRTF ratio was measured on a microplate reader (BMG Labtech., Germany) at an excitation wavelength of 337 nm and emission wavelengths of 665 and 620 nm with an integration time of 400 μsec.
(§3) Data were analyzed using Graphpad Prism (Graphpad software; San Diego Calif.) for IC50 determination. Examples 1-59 were tested at 1 uM for Pi3kα & Pi3k β and at 0.3 uM for γ and δ. Examples 60-137 were tested at 1 uM for Pi3kα & Pi3k β and at 0.1 uM for γ and δ. Percent inhibition was calculated based on the values for the blank and enzyme controls. The results are as provided in Table 2 (wherein D=0 to 25%; C=>25 to 50%; B=>50 to 75%; A=>75 to 100%; +++++=≤50 nM; ++++=>50 to ≤100 nM; +++=>100 to ≤300 nM; ++=>300 to ≤500 nM; +=>500 nM)

PI3kβ = PI3kβ (Homo sapiens, UniProt P42338); test: Fluorescent (HTRF) determination of PI3 kinase enzyme activity, PI3Kβ; conditions: 1 uM
From the text: as §1, §2, §3

PI3kγ = PI3kγ (Homo sapiens, UniProt P48736); test: Fluorescent (HTRF) determination of PI3 kinase enzyme activity, PI3Kγ; conditions: for inhibition at 0.3 µM: 300 nM (Examples 1-59); for inhibition at 0.1 µM: 100 nM (Examples 60-137)
From the text: as §1, §2, §3

PI3kδ = PI3kδ (Homo sapiens, UniProt O00329); test: Fluorescent (HTRF) determination of PI3 kinase enzyme activity, PI3Kδ; conditions: for inhibition at 0.3 µM: 300 nM (Examples 1-59); for inhibition at 0.1 µM: 100 nM (Examples 60-137)
From the text: as §1, §2, §3

PI3kδ, sequence (O00329 whole entry): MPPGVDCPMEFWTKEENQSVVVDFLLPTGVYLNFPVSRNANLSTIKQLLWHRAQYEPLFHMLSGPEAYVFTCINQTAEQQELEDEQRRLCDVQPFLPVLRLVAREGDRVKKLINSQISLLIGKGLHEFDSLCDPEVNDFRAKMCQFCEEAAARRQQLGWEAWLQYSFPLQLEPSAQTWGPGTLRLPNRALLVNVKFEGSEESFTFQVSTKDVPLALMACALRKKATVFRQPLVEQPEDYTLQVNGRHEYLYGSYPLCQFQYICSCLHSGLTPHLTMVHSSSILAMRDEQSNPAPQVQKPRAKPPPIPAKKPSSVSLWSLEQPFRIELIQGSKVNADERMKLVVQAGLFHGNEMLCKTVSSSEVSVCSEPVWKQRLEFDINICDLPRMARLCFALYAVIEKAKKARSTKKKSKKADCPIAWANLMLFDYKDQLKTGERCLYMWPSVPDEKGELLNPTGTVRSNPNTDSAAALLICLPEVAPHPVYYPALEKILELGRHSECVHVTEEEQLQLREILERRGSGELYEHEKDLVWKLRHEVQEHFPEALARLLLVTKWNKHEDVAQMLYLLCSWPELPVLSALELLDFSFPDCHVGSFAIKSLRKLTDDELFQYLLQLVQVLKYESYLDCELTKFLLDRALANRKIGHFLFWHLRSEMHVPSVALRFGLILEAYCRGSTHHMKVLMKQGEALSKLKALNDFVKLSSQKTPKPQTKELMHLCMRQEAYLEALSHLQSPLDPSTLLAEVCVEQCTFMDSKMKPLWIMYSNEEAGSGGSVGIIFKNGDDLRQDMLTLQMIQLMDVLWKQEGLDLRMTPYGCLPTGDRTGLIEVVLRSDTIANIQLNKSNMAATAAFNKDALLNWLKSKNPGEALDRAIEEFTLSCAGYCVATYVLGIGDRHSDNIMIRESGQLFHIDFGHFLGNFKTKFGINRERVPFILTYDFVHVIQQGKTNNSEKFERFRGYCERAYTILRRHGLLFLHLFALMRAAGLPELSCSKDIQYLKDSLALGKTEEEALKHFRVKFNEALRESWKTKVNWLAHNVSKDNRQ
PI3kδ, sequence (P27986 whole entry partner): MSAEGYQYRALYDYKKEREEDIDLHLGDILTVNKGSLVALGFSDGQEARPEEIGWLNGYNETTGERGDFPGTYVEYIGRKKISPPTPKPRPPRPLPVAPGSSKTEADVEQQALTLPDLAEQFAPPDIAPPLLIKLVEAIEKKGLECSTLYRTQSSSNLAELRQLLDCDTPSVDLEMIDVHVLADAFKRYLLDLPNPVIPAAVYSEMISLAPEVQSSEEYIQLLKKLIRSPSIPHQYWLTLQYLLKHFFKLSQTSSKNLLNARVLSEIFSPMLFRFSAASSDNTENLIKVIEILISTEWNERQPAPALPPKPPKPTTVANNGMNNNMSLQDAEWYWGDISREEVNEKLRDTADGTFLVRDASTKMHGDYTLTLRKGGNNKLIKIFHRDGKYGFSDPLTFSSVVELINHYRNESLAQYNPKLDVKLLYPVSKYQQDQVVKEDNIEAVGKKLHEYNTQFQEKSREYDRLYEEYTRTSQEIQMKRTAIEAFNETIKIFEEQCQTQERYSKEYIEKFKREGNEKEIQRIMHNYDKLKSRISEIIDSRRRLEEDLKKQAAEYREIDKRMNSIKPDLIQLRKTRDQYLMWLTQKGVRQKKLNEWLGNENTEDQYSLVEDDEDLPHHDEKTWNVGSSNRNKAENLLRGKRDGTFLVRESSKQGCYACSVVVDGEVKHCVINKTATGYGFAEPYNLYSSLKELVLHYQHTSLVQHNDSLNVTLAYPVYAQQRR
PI3kβ, sequence (P42338 whole entry): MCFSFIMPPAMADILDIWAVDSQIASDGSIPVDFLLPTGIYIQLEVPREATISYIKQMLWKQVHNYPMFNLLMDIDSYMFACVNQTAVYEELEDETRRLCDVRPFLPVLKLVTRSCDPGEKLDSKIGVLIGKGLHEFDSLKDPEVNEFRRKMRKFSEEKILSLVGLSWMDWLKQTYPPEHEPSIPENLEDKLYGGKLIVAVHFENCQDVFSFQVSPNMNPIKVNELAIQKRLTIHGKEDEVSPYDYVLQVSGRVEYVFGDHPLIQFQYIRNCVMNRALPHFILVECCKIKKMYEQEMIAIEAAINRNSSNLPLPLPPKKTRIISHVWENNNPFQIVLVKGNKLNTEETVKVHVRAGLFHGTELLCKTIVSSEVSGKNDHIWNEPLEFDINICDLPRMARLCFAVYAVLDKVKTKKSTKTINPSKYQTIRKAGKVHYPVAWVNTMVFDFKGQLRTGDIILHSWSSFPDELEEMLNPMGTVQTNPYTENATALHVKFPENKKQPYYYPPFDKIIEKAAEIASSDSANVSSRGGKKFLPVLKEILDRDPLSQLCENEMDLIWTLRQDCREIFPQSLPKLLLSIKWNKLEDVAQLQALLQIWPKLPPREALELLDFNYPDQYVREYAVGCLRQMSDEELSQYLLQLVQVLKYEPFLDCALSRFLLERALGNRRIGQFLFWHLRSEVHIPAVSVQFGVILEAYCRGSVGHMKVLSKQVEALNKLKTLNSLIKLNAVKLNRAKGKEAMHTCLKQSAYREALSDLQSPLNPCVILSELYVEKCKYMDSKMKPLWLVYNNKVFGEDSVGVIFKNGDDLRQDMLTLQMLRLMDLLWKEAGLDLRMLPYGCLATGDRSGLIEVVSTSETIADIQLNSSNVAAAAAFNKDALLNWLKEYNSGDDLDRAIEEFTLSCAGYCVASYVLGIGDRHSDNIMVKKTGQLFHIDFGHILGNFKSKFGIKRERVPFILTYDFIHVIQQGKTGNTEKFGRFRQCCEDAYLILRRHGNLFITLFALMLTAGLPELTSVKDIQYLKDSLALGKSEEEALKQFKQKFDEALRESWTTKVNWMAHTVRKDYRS
PI3kβ, sequence (P27986 whole entry partner): as the sequence (P27986 whole entry partner) above
PI3kγ, sequence (P48736 whole entry): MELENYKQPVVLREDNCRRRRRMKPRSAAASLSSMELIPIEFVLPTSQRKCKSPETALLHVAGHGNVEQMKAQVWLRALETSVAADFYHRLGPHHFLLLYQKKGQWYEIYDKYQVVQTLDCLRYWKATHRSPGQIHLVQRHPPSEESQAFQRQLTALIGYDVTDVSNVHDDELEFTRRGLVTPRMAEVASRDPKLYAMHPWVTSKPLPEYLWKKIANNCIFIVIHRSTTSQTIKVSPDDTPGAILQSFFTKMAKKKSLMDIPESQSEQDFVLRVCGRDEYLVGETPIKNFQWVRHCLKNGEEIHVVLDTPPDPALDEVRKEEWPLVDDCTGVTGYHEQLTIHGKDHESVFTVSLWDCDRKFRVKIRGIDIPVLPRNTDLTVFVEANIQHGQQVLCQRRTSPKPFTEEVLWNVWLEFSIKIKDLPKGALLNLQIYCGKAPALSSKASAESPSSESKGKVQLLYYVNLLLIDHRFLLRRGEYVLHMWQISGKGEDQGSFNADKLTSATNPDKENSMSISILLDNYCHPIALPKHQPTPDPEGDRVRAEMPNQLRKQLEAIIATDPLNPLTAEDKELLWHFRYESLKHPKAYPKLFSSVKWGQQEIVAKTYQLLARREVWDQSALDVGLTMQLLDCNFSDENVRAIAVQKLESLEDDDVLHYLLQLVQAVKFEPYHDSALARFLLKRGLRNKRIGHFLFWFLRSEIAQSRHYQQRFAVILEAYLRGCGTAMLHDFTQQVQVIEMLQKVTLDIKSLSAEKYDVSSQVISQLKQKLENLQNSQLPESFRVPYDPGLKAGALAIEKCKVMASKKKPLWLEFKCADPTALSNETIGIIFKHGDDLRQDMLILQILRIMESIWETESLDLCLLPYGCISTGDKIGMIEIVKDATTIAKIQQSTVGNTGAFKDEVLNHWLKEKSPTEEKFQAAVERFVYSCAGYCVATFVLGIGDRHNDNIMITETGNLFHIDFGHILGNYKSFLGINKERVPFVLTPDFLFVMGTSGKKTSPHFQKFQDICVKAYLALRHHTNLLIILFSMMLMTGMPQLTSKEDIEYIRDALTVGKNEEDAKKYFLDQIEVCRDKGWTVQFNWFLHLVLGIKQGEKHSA
PI3kα, sequence (P42336 whole entry): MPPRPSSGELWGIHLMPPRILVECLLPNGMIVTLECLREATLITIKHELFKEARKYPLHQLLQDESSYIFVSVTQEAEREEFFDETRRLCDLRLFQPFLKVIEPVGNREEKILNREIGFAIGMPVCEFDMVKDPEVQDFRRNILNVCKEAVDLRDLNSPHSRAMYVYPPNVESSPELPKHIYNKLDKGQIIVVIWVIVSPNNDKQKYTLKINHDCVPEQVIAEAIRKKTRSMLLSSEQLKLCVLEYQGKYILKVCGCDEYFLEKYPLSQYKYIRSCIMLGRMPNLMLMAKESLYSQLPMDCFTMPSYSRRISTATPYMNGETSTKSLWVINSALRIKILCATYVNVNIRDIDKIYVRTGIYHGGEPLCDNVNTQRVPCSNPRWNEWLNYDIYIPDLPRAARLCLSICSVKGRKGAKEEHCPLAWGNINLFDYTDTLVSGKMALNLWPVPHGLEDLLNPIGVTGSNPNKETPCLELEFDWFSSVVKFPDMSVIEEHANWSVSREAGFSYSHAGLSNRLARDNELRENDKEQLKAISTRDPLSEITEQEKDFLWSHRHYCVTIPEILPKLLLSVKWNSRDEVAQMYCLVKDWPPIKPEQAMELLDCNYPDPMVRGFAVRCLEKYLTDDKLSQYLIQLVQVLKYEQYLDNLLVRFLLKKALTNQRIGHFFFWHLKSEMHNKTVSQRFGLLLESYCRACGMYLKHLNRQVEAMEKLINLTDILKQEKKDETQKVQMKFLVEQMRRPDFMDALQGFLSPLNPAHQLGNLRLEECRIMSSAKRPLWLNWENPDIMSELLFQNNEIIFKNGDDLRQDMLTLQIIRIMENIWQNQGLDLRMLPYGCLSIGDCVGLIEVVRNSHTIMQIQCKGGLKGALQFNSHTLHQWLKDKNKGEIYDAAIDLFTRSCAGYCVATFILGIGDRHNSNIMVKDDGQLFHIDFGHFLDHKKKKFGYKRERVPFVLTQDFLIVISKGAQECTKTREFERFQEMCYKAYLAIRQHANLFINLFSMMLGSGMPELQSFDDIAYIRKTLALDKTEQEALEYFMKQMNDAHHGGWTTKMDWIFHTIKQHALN
PI3kα, sequence (P27986 whole entry partner): as the sequence (P27986 whole entry partner) above

SMILES: CC(C)Oc1ccc(-c2nn(C(C)c3oc4cccc(F)c4c(=O)c3-c3ccc(F)cc3)c3ncnc(N)c23)cc1F (stereo not drawn) [Example 12, 2-(1-(4-amino-3-(3-fluoro-4-isopropoxyphenyl)-1H-pyrazolo[3,4-d]pyrimidin-1-yl)ethyl)-5-fluoro-3-(4-fluorophenyl)-4H-chromen-4-one]
- % inhibition (PI3kα) 1 uM (PI3kα): D (D=0 to 25%)
- % inhibition (PI3kβ) 1 uM (PI3kβ): C (C=>25 to 50%)
- IC50 (PI3kγ): 100 to 300 nM
- inhibition at 0.3 µM (PI3kγ): 75 to 100%
- inhibition at 0.3 µM (PI3kδ): 25 to 50%

SMILES: CC(c1oc2cccc(F)c2c(=O)c1-c1cccc(F)c1)n1ncc2c(N)ncnc21 (stereo not drawn) [Example 16, 2-(1-(4-amino-1H-pyrazolo[3,4-d]pyrimidin-1-yl)ethyl)-5-fluoro-3-(3-fluorophenyl)-4H-chromen-4-one]
- inhibition at 1 µM (PI3kα): 25 to 50%
- inhibition at 1 µM (PI3kβ): 0 to 25%
- inhibition at 0.3 µM (PI3kγ): 0 to 25%
- IC50 (PI3kδ): 50 to 100 nM
- inhibition at 0.3 µM (PI3kδ): 75 to 100%

SMILES: CC(C)Oc1ccc(-c2nn(C(C)c3oc4cccc(F)c4c(=O)c3-c3ccccc3)c3ncnc(N)c23)cc1F (stereo not drawn) [Example 13, 2-(1-(4-amino-3-(3-fluoro-4-isopropoxyphenyl)-1H-pyrazolo[3,4-d]pyrimidin-1-yl)ethyl)-5-fluoro-3-phenyl-4H-chromen-4-one]
- % inhibition (PI3kα) 1 uM (PI3kα): D (D=0 to 25%)
- % inhibition (PI3kβ) 1 uM (PI3kβ): D (D=0 to 25%)
- inhibition at 0.3 µM (PI3kγ): 50 to 75%
- IC50 (PI3kδ): ≤ 50 nM
- inhibition at 0.3 µM (PI3kδ): 75 to 100%

SMILES: CC(c1oc2cccc(F)c2c(=O)c1-c1ccccc1)n1nc(-c2ccc(OC(F)F)c(F)c2)c2c(N)ncnc21 (stereo not drawn) [Example 32, 2-(1-(4-amino-3-(4-(difluoromethoxy)-3-fluorophenyl)-1H-pyrazolo[3,4-d]pyrimidin-1-yl)ethyl)-5-fluoro-3-phenyl-4H-chromen-4-one]
- % inhibition (PI3kα) 1 uM (PI3kα): D (D=0 to 25%)
- % inhibition (PI3kβ) 1 uM (PI3kβ): B (B=>50 to 75%)
- inhibition at 0.3 µM (PI3kγ): 50 to 75%
- inhibition at 0.3 µM (PI3kδ): 0 to 25%

SMILES: CSc1nn(C(C)c2oc3cccc(F)c3c(=O)c2-c2cccc(F)c2)c2ncnc(N)c12 (stereo not drawn) [Example 41, 2-(1-(4-amino-3-(methylthio)-1H-pyrazolo[3,4-d]pyrimidin-1-yl)ethyl)-5-fluoro-3-(3-fluorophenyl)-4H-chromen-4-one]
- inhibition at 1 µM (PI3kα): 25 to 50%
- inhibition at 1 µM (PI3kβ): 25 to 50%
- inhibition at 0.3 µM (PI3kγ): 50 to 75%
- inhibition at 0.3 µM (PI3kδ): 50 to 75%

SMILES: CC(c1oc2cccc(F)c2c(=O)c1-c1cccc(F)c1)n1nc(N2CCCCC2)c2c(N)ncnc21 (stereo not drawn) [Example 39, 2-(1-(4-amino-3-(piperidin-1-yl)-1H-pyrazolo[3,4-d]pyrimidin-1-yl)ethyl)-5-fluoro-3-(3-fluorophenyl)-4H-chromen-4-one]
- inhibition at 1 µM (PI3kα): 25 to 50%
- inhibition at 1 µM (PI3kβ): 50 to 75%
- inhibition at 0.3 µM (PI3kγ): 0 to 25%
- inhibition at 0.3 µM (PI3kδ): 25 to 50%

SMILES: CC(c1oc2cccc(F)c2c(=O)c1-c1ccc(F)cc1)n1ncc2c(N)ncnc21 (stereo not drawn) [Example 30, 2-(1-(4-amino-1H-pyrazolo[3,4-d]pyrimidin-1-yl)ethyl)-5-fluoro-3-(4-fluorophenyl)-4H-chromen-4-one]
- inhibition at 1 µM (PI3kα): 25 to 50%
- inhibition at 1 µM (PI3kβ): 0 to 25%
- inhibition at 0.3 µM (PI3kγ): 0 to 25%
- inhibition at 0.3 µM (PI3kδ): 25 to 50%

SMILES: CC(c1oc2cccc(F)c2c(=O)c1-c1cccc(F)c1)n1cnc2c(N)ncnc21 (stereo not drawn) [Example 11, 2-(1-(6-amino-9H-purin-9-yl)ethyl)-5-fluoro-3-(3-fluorophenyl)-4H-chromen-4-one]
- inhibition at 1 µM (PI3kα): 50 to 75%
- inhibition at 1 µM (PI3kβ): 50 to 75%
- inhibition at 0.3 µM (PI3kγ): 25 to 50%
- inhibition at 0.3 µM (PI3kδ): 50 to 75%

SMILES: CC(C)Oc1ccc(-c2nn(C(C)c3oc4cccc(F)c4c(=O)c3-c3cccc(F)c3)c3ncnc(N)c23)cn1 (stereo not drawn) [Example 40, 2-(1-(4-amino-3-(6-isopropoxypyridin-3-yl)-1H-pyrazolo[3,4-d]pyrimidin-1-yl)ethyl)-5-fluoro-3-(3-fluorophenyl)-4H-chromen-4-one]
- inhibition at 1 µM (PI3kα): 25 to 50%
- inhibition at 1 µM (PI3kβ): 50 to 75%
- inhibition at 0.3 µM (PI3kγ): 0 to 25%
- inhibition at 0.3 µM (PI3kδ): 50 to 75%

SMILES: CC(c1oc2cccc(F)c2c(=O)c1-c1cccc(F)c1)n1nc(-c2ccc(N3CCN(C)CC3)c(F)c2)c2c(N)ncnc21 (stereo not drawn) [Example 27, 2-(1-(4-amino-3-(3-fluoro-4-(4-methylpiperazin-1-yl)phenyl)-1H-pyrazolo[3,4-d]pyrimidin-1-yl)ethyl)-5-fluoro-3-(3-fluorophenyl)-4H-chromen-4-one]
- inhibition at 1 µM (PI3kα): 0 to 25%
- inhibition at 1 µM (PI3kβ): 25 to 50%
- inhibition at 0.3 µM (PI3kγ): 50 to 75%
- inhibition at 0.3 µM (PI3kδ): 25 to 50%

SMILES: CC(C)Oc1ccc(-c2nn(Cc3oc4cccc(F)c4c(=O)c3-c3cccc(F)c3)c3ncnc(N)c23)cc1F [Example 3, 2-((4-amino-3-(3-fluoro-4-isopropoxyphenyl)-1H-pyrazolo[3,4-d]pyrimidin-1-yl)methyl)-5-fluoro-3-(3-fluorophenyl)-4H-chromen-4-one]
- inhibition at 1 µM (PI3kα): 25 to 50%
- inhibition at 1 µM (PI3kβ): 0 to 25%
- IC50 (PI3kγ): 100 to 300 nM
- inhibition at 0.3 µM (PI3kγ): 50 to 75%
- IC50 (PI3kδ): 50 to 100 nM
- inhibition at 0.3 µM (PI3kδ): 50 to 75%

SMILES: CC(C)Oc1ccc(-c2nn(C(C)c3oc4cccc(F)c4c(=O)c3-c3cn[nH]c3)c3ncnc(N)c23)cc1F (stereo not drawn) [Example 18, 2-(1-(4-amino-3-(3-fluoro-4-isopropoxyphenyl)-1H-pyrazolo[3,4-d]pyrimidin-1-yl)ethyl)-5-fluoro-3-(1H-pyrazol-4-yl)-4H-chromen-4-one]
- inhibition at 1 µM (PI3kα): 0 to 25%
- inhibition at 1 µM (PI3kβ): 0 to 25%
- inhibition at 0.3 µM (PI3kγ): 50 to 75%
- IC50 (PI3kδ): 50 to 100 nM
- inhibition at 0.3 µM (PI3kδ): 75 to 100%

SMILES: CC(C)Oc1ccc(-c2nn(C(C)c3oc4cccc(F)c4c(=O)c3-c3ccccc3)c3ncnc(N)c23)cc1F (racemic) [Example 100, (S)/(R)-2-(1-(4-amino-3-(3-fluoro-4-isopropoxyphenyl)-1H-pyrazolo[3,4-d]pyrimidin-1-yl)ethyl)-5-fluoro-3-phenyl-4H-chromen-4-one]
- % inhibition (PI3kα) 1 uM (PI3kα): B (B=>50 to 75%)
- % inhibition (PI3kβ) 1 uM (PI3kβ): B (B=>50 to 75%)
- IC50 (PI3kγ): 50 to 100 nM
- inhibition at 0.1 µM (PI3kγ): 50 to 75%
- IC50 (PI3kδ): 100 to 300 nM
- inhibition at 0.1 µM (PI3kδ): 25 to 50%

SMILES: CC(c1oc2cccc(F)c2c(=O)c1-c1cccc(F)c1)n1nc(-c2cc3ccccc3s2)c2c(N)ncnc21 (stereo not drawn) [Example 36, 2-(1-(4-amino-3-(benzo[b]thiophen-2-yl)-1H-pyrazolo[3,4-d]pyrimidin-1-yl)ethyl)-5-fluoro-3-(3-fluorophenyl)-4H-chromen-4-one]
- inhibition at 1 µM (PI3kα): 0 to 25%
- inhibition at 1 µM (PI3kβ): 50 to 75%
- inhibition at 0.3 µM (PI3kγ): 75 to 100%
- inhibition at 0.3 µM (PI3kδ): 25 to 50%

SMILES: CCC(Nc1ncnc2[nH]cnc12)c1oc2cccc(F)c2c(=O)c1-c1ccccc1 (stereo not drawn) [Example 65, 2-(1-(9H-purin-6-ylamino)propyl)-5-fluoro-3-phenyl-4H-chromen-4-one]
- inhibition at 1 µM (PI3kα): 25 to 50%
- inhibition at 1 µM (PI3kβ): 25 to 50%
- inhibition at 0.1 µM (PI3kγ): 50 to 75%
- inhibition at 0.1 µM (PI3kδ): 0 to 25%

SMILES: CC(C)c1n[nH]c2cc(-c3nn(C(C)c4oc5cccc(F)c5c(=O)c4-c4cccc(F)c4)c4ncnc(N)c34)ccc12 (stereo not drawn) [Example 20, 2-(1-(4-amino-3-(3-isopropyl-1H-indazol-6-yl)-1H-pyrazolo[3,4-d]pyrimidin-1-yl)ethyl)-5-fluoro-3-(3-fluorophenyl)-4H-chromen-4-one]
- inhibition at 1 µM (PI3kα): 0 to 25%
- inhibition at 1 µM (PI3kβ): 25 to 50%
- inhibition at 0.3 µM (PI3kγ): 0 to 25%
- IC50 (PI3kδ): 50 to 100 nM
- inhibition at 0.3 µM (PI3kδ): 75 to 100%

SMILES: CC(=O)c1ccc(-c2nn(C(C)c3oc4cccc(F)c4c(=O)c3-c3cccc(F)c3)c3ncnc(N)c23)cc1F (stereo not drawn) [Example 124, 2-(1-(3-(4-acetyl-3-fluorophenyl)-4-amino-1H-pyrazolo[3,4-d]pyrimidin-1-yl)ethyl)-5-fluoro-3-(3-fluorophenyl)-4H-chromen-4-one]
- inhibition at 1 µM (PI3kα): 25 to 50%
- inhibition at 1 µM (PI3kβ): 0 to 25%
- inhibition at 0.1 µM (PI3kγ): 0 to 25%
- inhibition at 0.1 µM (PI3kδ): 25 to 50%

SMILES: CC(c1oc2cccc(F)c2c(=O)c1-c1cccc(F)c1)n1nc(-c2ccc(OC3CCOCC3)c(F)c2)c2c(N)ncnc21 (stereo not drawn) [Example 19, 2-(1-(4-amino-3-(3-fluoro-4-(tetrahydro-2H-pyran-4-yloxy)phenyl)-1H-pyrazolo[3,4-d]pyrimidin-1-yl)ethyl)-5-fluoro-3-(3-fluorophenyl)-4H-chromen-4-one]
- inhibition at 1 µM (PI3kα): 25 to 50%
- inhibition at 1 µM (PI3kβ): 25 to 50%
- inhibition at 0.3 µM (PI3kγ): 75 to 100%
- inhibition at 0.3 µM (PI3kδ): 50 to 75%
